What follows are compounds tested against CDK2/Cyclin E1 (Homo sapiens (Human), UniProt P24941) (assay: CDK2/Cyclin E1 HTRF enzyme activity assay (Example A)). Conditions: 1 mM ATP.
Type: biochemical
Protocol: Assays were conducted in white 384-well polystyrene plates in a final reaction volume of 8 μL. […] HTRF signals were read after 1 hour at room temperature on a PHERAstar FS plate reader (BMG Labtech). Data was analyzed with IDBS XLFit and GraphPad Prism 5.0 software using a three or four parameter dose response curve to determine IC50 for each compound.

IC50, ≤ 0.05 µM:
CS(=O)(=O)N1CCC(Nc2ncc(C(F)(F)F)c(-c3cn(-c4ccc(C#N)cc4CO)cn3)n2)CC1 [Example 235, 3-(Hydroxymethyl)-4-(4-(2-((1-(methylsulfonyl)piperidin-4-yl)amino)-5-(trifluoromethyl)pyrimidin-4-yl)-1H-imidazol-1-yl)benzonitrile]
Cc1nc(-c2nc(N[C@H]3CCN(S(C)(=O)=O)C[C@H]3F)ncc2C(F)(F)F)cn1-c1cccc(C#N)c1F [Example 305, 2-Fluoro-3-(4-(2-(((3R,4S)-3-fluoro-1-(methylsulfonyl)piperidin-4-yl)amino)-5-(trifluoromethyl)pyrimidin-4-yl)-2-methyl-1H-imidazol-1-yl)benzonitrile]
CN(C)C1CCN(c2ccc(-n3cnc(-c4nc(NC5CCN(S(C)(=O)=O)CC5)ncc4C(F)(F)F)c3)c(Cl)c2)C1 (stereo not shown) [Example 143, 4-(1-(2-Chloro-4-(3-(dimethylamino)-pyrrolidin-1-yl)-phenyl)-1H-imidazol-4-yl)-N-(1-(methylsulfonyl)-piperidin-4-yl)-5-(trifluoromethyl)-pyrimidin-2-amine]
CC(C)NC(C)c1cccc(-n2cnc(-c3nc(NC4CCN(S(C)(=O)=O)CC4)ncc3C(F)(F)F)c2)c1Cl (stereo not shown) [Example 468, 4-(1-(2-Chloro-3-(1-(isopropylamino)ethyl)phenyl)-1H-imidazol-4-yl)-N-(1-(methylsulfonyl)piperidin-4-yl)-5-(trifluoromethyl)pyrimidin-2-amine]
CS(=O)(=O)N1CCC(Nc2ncc(C(F)(F)F)c(-c3cn(-c4ccc(CCN5CCCCC5)cc4C#N)cn3)n2)CC1 [Example 458, 2-(4-(2-((1-(Methylsulfonyl)piperidin-4-yl)amino)-5-(trifluoromethyl)pyrimidin-4-yl)-1H-imidazol-1-yl)-5-(2-(piperidin-1-yl)ethyl)benzonitrile]
CS(=O)(=O)N1CCC(Nc2ncc(C(F)(F)F)c(-c3cn(-c4ccc(C#N)nc4CO)cn3)n2)CC1 [Example 236, 6-(Hydroxymethyl)-5-(4-(2-((1-(methylsulfonyl)piperidin-4-yl)amino)-5-(trifluoromethyl)pyrimidin-4-yl)-1H-imidazol-1-yl)picolinonitrile]
C[C@@H]1CN(c2ccc(-n3cnc(-c4nc(NC5CCN(S(C)(=O)=O)CC5)ncc4C(F)(F)F)c3)c(Cl)c2)CCN1 [Example 141, (R)-4-(1-(2-Chloro-4-(3-methyl-piperazin-1-yl)-phenyl)-1H-imidazol-4-yl)-N-(1-(methyl-sulfonyl)piperidin-4-yl)-5-(trifluoro-methyl)pyrimidin-2-amine]
CCCc1ccc(-n2cnc(-c3nc(NC4CCN(S(C)(=O)=O)CC4)ncc3C(F)(F)F)c2)c(C#N)n1 [Example 94, 3-(4-(2-((1-(Methylsulfonyl)piperidin-4-yl)amino)-5-(trifluoromethyl)pyrimidin-4-yl)-1H-imidazol-1-yl)-6-propylpicolinonitrile]
Cc1nc(-c2nc(NC3CCN(S(C)(=O)=O)CC3)ncc2C(F)(F)F)cn1-c1ccc(N2CCN[C@H](C)C2)cc1F [Example 115, (R)-4-(1-(2-Fluoro-4-(3-methyl-piperazin-1-yl)-phenyl)-2-methyl-1H-imidazol-4-yl)-N-(1-(methyl-sulfonyl)piperidin-4-yl)-5-(trifluoro-methyl)pyrimidin-2-amine]
CS(=O)(=O)N1CCC(Nc2ncc(C(F)(F)F)c(-c3cn(-c4cc(F)ccc4C#N)cn3)n2)CC1 [Example 57, 4-Fluoro-2-(4-(2-((1-(methylsulfonyl)piperidin-4-yl)amino)-5-(trifluoromethyl)pyrimidin-4-yl)-1H-imidazol-1-yl)benzonitrile]
CCN(CC)Cc1ccc(-n2cc(-c3nc(NC4CCN(S(C)(=O)=O)CC4)ncc3C(F)(F)F)nc2C)c(F)c1 [Example 357, 4-(1-(4-((Diethylamino)methyl)-2-fluorophenyl)-2-methyl-1H-imidazol-4-yl)-N-(1-(methylsulfonyl)piperidin-4-yl)-5-(trifluoromethyl)pyrimidin-2-amine]
CS(=O)(=O)N1CCC(Nc2ncc(C(F)(F)F)c(-c3cn(-c4cnccc4C#N)cn3)n2)CC1 [Example 67, 3-(4-(2-((1-(Methylsulfonyl)piperidin-4-yl)amino)-5-(trifluoromethyl)pyrimidin-4-yl)-1H-imidazol-1-yl)isonicotinonitrile]
CN(C)CCN(C)c1ccc(-n2cnc(-c3nc(NC4CCN(S(C)(=O)=O)CC4)ncc3C(F)(F)F)c2)c(Cl)c1 [Example 149, N^1-(3-Chloro-4-(4-(2-((1-(methyl-sulfonyl)piperidin-4-yl)amino)-5-(trifluoromethyl)-pyrimidin-4-yl)-1H-imidazol-1-yl)-phenyl)-N1,N2,N2-trimethylethane-1,2-diamine]
CCN1CCN(Cc2ccc(-n3cc(-c4nc(N[C@H]5CCN(S(C)(=O)=O)C[C@H]5F)ncc4C(F)(F)F)nc3C)c(F)c2)CC1 [Example 445, 4-(1-(4-((4-Ethylpiperazin-1-yl)methyl)-2-fluorophenyl)-2-methyl-1H-imidazol-4-yl)-N-((3R,4S)-3-fluoro-1-(methylsulfonyl)piperidin-4-yl)-5-(trifluoromethyl)pyrimidin-2-amine]
CN(C)c1nccc(-n2cnc(-c3nc(NC4CCN(S(C)(=O)=O)CC4)ncc3C(F)(F)F)c2)c1Cl [Example 321, 4-(1-(3-Chloro-2-(dimethylamino)pyridin-4-yl)-1H-imidazol-4-yl)-N-(1-(methylsulfonyl)piperidin-4-yl)-5-(trifluoromethyl)pyrimidin-2-amine]
Cc1nc(-c2nc(NC3CCN(S(C)(=O)=O)CC3)ncc2C(F)(F)F)cn1-c1cccc(C#N)c1F [Example 304, 2-Fluoro-3-(2-methyl-4-(2-((1-(methylsulfonyl)piperidin-4-yl)amino)-5-(trifluoromethyl)pyrimidin-4-yl)-1H-imidazol-1-yl)benzonitrile]
CN1CCN(c2nccc(-n3cnc(-c4nc(NC5CCN(S(C)(=O)=O)CC5)ncc4C(F)(F)F)c3)c2C#N)CC1 [Example 316, 2-(4-Methylpiperazin-1-yl)-4-(4-(2-((1-(methylsulfonyl)piperidin-4-yl)amino)-5-(trifluoromethyl)pyrimidin-4-yl)-1H-imidazol-1-yl)nicotinonitrile]
C[C@@]1(O)CCN(Cc2cccc(-n3cnc(-c4nc(NC5CCN(S(C)(=O)=O)CC5)ncc4C(F)(F)F)c3)c2Cl)C1 [Example 363, (R)-1-(2-Chloro-3-(4-(2-((1-(methylsulfonyl)piperidin-4-yl)amino)-5-(trifluoromethyl)pyrimi-din-4-yl)-1H-imidazol-1-yl)benzyl)-3-methylpyrrolidin-3-ol]
CNC1CCN(c2ccc(-n3cc(-c4nc(NC5CCN(S(C)(=O)=O)CC5)ncc4C(F)(F)F)nc3C)c(F)c2)CC1 [Example 107, 4-(1-(2-Fluoro-4-(4-(methylamino)-piperidin-1-yl)-phenyl)-2-methyl-1H-imidazol-4-yl)-N-(1-(methyl-sulfonyl)piperidin-4-yl)-5-(trifluoro-methyl)pyrimidin-2-amine]
